Data from patent publication US20200369618A1, “ASYMMETRIC DERIVATIVES OF P[…] THE DIN[…], PROCESS OF PREPARING AND USE THEREOF” (NEARMEDIC INTERNATIONAL LIMITED, priority 2017, published 2020).
In brackets after ≈: the same amount, converted by molar mass.

How the values were obtained:
[1] = test system: influenza virus A/Puerto Rico/8/34 (H1N1); experiment: organism not typed; format: cell-based; conditions: for SI (selectivity index, SI=CC50/IC50): CC50 in MDCK cells / IC50 against influenza A/Puerto Rico/8/34 (H1N1); for IC50: MDCK cells, influenza A/Puerto Rico/8/34 (H1N1), 48 hours, read-out: IC50 (compound concentration, at which 50% of virus titer is inhibited)
[2] = Assessment of cytotoxic properties (MTS assay, 48 h); format: cell-based; conditions: dog, MDCK ECAAC cells, read-out: CC50 (toxic dose of the drug, causing the death of 50% of the monolayer cells)
Experimental: Assessment of cytotoxic properties of asymmetric gossypol derivatives.
In 96-well flat-bottomed test plates, MDCK ECAAC (Sigma cat. ? 85011435) cells are placed at 18,000 cells per well in a volume of 100 μl of complete medium containing 10% fetal calf serum (FCS). Cells are cultured for 24 hours in CO2-incubator at 37° C. Then the liquid medium is removed from the wells of the test plates, leaving the immobilized living cells. Then wells are once washed with the 100 μl of serumless media. The medium is replaced with 100 μl per well of the dilutions of test compounds in support medium with 2% of serum, in 4 replicates. Each plate is prepared with 6 control wells containing 100 μl of fresh support medium without test compounds. The plates are incubated in CO2-incubator at 37° C. for 48 hours. Then liquid contents are removed from the wells, and 100 μl of support medium and 20 μl of MTS (Promega, cat. ? G3581) are added and mixed. The cells are incubated for 3 hours in CO2-incubator at 37° C., and the relative optical density of the solution in each well is measured with a plate spectrophotometer at 492 nm against its absorption at a reference wavelength of 620 nm. The cytotoxicity (CC50) is calculated using the standard method.

Which “SI (selectivity index, SI=CC50/IC50)” value [1] does the source give for `Cc1cc2c(C(C)C)c(O)c(O)cc2c(O)c1-c1c(C)cc2c(C(C)C)c(O)c(O)c(C=O)c2c1O` (racemic) [I, 1,1′,6,6′,7,7′-hexahydroxy-5,5′-diisopropyl-3,3′-dimethyl-2,2′-binaphthalene-8-carbaldehyde] here?
The value was 29,36.

And the IC50 [1]?
The IC50 was 0.2 µg/mL (≈ 0.408 µM).

What about the CC50 at 48 h [2] of the same compound?
Its CC50 at 48 h is 5.5 µg/mL (≈ 11.2 µM).

Which “SI (selectivity index, SI=CC50/IC50)” value [1] does the source give for `Cc1cc2c(C(C)C)c(O)c(O)c(C=O)c2c(O)c1-c1c(C)cc2c(C(C)C)c(O)c(O)c(C=O)c2c1O` [Gossypol, gossypol, reference compound] here?
Its value is 3,24.

And the IC50 [1]?
The IC50 was 1.2 µg/mL (≈ 2.31 µM).

What about the CC50 at 48 h [2] of the same compound?
Its CC50 at 48 h is 4 µg/mL (≈ 7.71 µM).

Which results are given for `CC1=C(C2=C(C)C(=O)c3c(c(C=O)c(O)c(O)c3C(C)C)C2=O)C(=O)c2cc(O)c(O)c(C(C)C)c2C1=O` [II, 6,6′,7,7′-tetrahydroxy-5,5′-diisopropyl-3,3′-dimethyl-1,1′,4,4′-tetraoxo-1,1′,4,4′-tetrahydro-2,2′-binaphthalene-8-carbaldehyde]?
SI (selectivity index, SI=CC50/IC50) [1]: 4,75; IC50 [1]: 0.8 µg/mL (≈ 1.54 µM); CC50 at 48 h [2]: 3.8 µg/mL (≈ 7.33 µM)
